Like-named read-outs stand apart in the source and are kept apart here.
Key:
[1] = system: hepatic necrocytosis induced by carbon tetrachloride; test: Hepatic necrocytosis induced by carbon tetrachloride (in vivo), serum GOT and GPT; parameters: species or system SD male rats; details: for Enzyme Activity GOT (U/L) / Enzyme Activity GPT (U/L): 6 administrations, CCl4 0.5 ml/kg i.p.; for inhibiting liver necrocytosis induced by CCl4 (result in words): in vivo, summary of Tables 4 to 6
Experimental: In the evaluation tests, 6 weeks old SD male rats were used. […] The rats were freely fed or supplied with a solid feed and drinking water.
Carbon tetrachloride (CC14) was diluted with an olive oil and was peritoneally injected in each rat at a dosage of 0.5 ml/kg. To the control group, only CC14 diluted with the olive oil and a 5% gum arabic solution containing no active ingredient were administered. Furthermore, only the olive oil but no CC14 was administered to the olive oil injection group in the Tables.
The methincyanine compounds listed in Tables 4 to 6 were administered as follows. Methincyanine compounds were diluted 100 times with dextrose dissolved in 5% gum arabic solutions. The administration schedules were such that the methiocyanine compounds were administered 6 times in total from 5 days before the CC14 injection to the day of the injection.
Blood was sampled from the orbital veniplex of the rat and was allowed to stand at room temperature for one hour. The blood sample was then centrifugally separated at 2800 rpm for 10 minutes. The resultant supernatant was used as a serum sample.
The determination of GOT and GPT in the serum sample was carried out by using a determination kit (available from Boeklinger-Yamanouchi Co.) and the results were recorded in an automatic analyzer (available from FLEXIGEM Co.).

[2] = system: hepatic disorders induced by D-galactosamine; test: Hepatic disorders induced by D-galactosamine in rats (serum GOT, GPT, bilirubin, complement value); type: in vivo, Wister male rats; details: DSCG i.p. 1 mg/kg, GalN 250 mg/kg i.p., serum two days after GalN
Experimental: In the evaluation tests, 8 to 9 weeks old Wister male rats were used. Five rats were used in each test group. The rats were given standard chow and water ad libitum.
D-Galactosamine hydrochloride (GalN) was dissolved in sterilized physiological saline and the pH thereof was adjusted to 7. The resultant solution was peritoneally administered to each rat at a dosage of 250 mg/kg. To one control group, only GalN was injected, and physiological saline was administered to the other control group instead of pionin. Furthermore, only physiological saline but no GaIN was injected to the physiological saline administration group.
The pionin was administered as follows. It is diluted 10, 100, and 1000 times with dextrose and these diluted powders were dissolved in saline. All drugs were intravenously or orally administered at doses of 0.1, 0.5, 1, and 10 pg/kg. The administration was carried out from five days before to the day after the GaIN injection.
The rats were killed two days after the injection of GalN and blood was collected. The blood samples were allowed to stand at room temprature for one hour and serum was then centrifugally separated at 2500 rpm for 10 minutes.
The determination of GOT and GPT in the serum samples was carried out according to a modification of the Reitman-Framkel method [see Amir. J. Clin. Pothil. 28, 56 (1957) and J. Clin. Invest. 34, 131 (1955)], the determination of bilirubin was carried out according to a modification of Jendrassik-Grof method [see Clinical Chemistry, 19, 984-993 (1973)], and the determination of the complement value was carried out according to the Mayer method (see Experimental Immunochemistry, 2, 133-240, 1961).
The results are shown in Table 2 (i.e., intravenous administration of pionin) and Table 3 (i.e., oral administration of pionin). Disodium cromoglycate (i.e., DSCG) was used as a control.

[3] = system: hepatic disorders induced by D-galactosamine; test: as above; type: in vivo, Wister male rats; details: for Bilirubin / Complement value (%) / Enzyme activity GOT (K.U.) / Enzyme activity GPT (K.U.): GalN 250 mg/kg i.p., serum two days after GalN
rat liver cells = test: Hepatic necrocytosis induced by carbon tetrachloride (in vitro), trypan blue exclusion test; type: cell-based
Experimental: Liver cells were prepared according to a method disclosed in Nakamura et al "Proteins, Nucleic Acids, and Enzymes" Vol. 24, pages 55-76 (1981). That is, the rat liver cells, which were previously peritoneally treated with phenobarbital at 80 mg/kg/day for 3 days, were collected by centrifugal separation after being subjected to 0.05% collagenase perfusion.
The liver cells thus obtained were suspended in a William's E culture medium containing 10% fetal calf serum, dexamethasone (10^-6 M) and insulin (0.02 unit/ml). A 3 ml amount of the cell dispersion having a cell content of 5 x 10^S cells/ml was placed in a 25 mm Falcon dish and was then incubated at a temperature of 37°C under an atmosphere of 5% C02 and 95% air for 3 hours. After 3 hours incubation, the number of surviving liver cells in the incubated dish was measured according to a trypan blue exclusion test. The average value thereof was used as a control value for the survival percentage of the liver cells in the pre-incubation.
Then, a culture medium containing 2-[2-(3-heptyl-4-methyl-4-thiazolin-2-ylidene) methyll-3-heptyl thiazolinium iodide (i.e., pionin) dissolved in ethanol was substituted after removing non-adhesive cells and was then incubated for a further one hour. The concentrations of pionin in the culture medium were 0.94 x 10^-6, 1.8x10^-7, 1x10^-8, 1x10^-9, and I x 10^-10 mole and, as a control or comparative test, the culture medium itself, the culture medium containing 0.5% of ethanol, and the culture medium containing 0.25 µm/ml of carbon tetrachloride were used.
Then, 0.25 pm/ml of carbon tetrachloride was added to each culture dish and the incubation was carried out for a further 3 hours under the same conditions mentioned above. No further carbon tetrachloride was added to the comparative culture containing carbon tetrachloride. After 3 hours incubation, the number of survival liver cells was measured according to a trypan blue exclusion test. The percentage ratio of the mean survival number to the survival number of the above-mentioned pre-incubation was then calculated.
The results are shown in Table 1, in which the mean survival cell percentage (%) and standard deviation thereof in the culture dish containing 4 to 29 liver cells (i.e., N). Statistical significance was evaluated by Student's t-test.

rats = details: oral, cited from earlier work
[4] = Table 2 experiment, DSCG i.p. 1 mg/kg
[5] = Table 3 experiment, DSCG i.p. 1 mg/kg
[6] = Table 2, intravenous, 0.1 µg/kg
[7] = Table 2, intravenous, 0.5 µg/kg

## CCCCCCCCCCN1C(C)=CSC1=Cc1scc(C)[n+]1CCCC [Compound of Example 8, 2-[2-(3-decyl-4-methyl-4-thiazolin-2-ylidene)methyl]-3-butyl-4-methylthiazolinium iodide]
[1]; Table 5, oral, 10 µg/kg
  Enzyme Activity GOT (U/L): 310 ± 68 U/L
  Enzyme Activity GPT (U/L): 99 ± 27 U/L

## CCCCCCC[n+]1cc(C)sc1C=C1SC=C(C)N1CCCC [Compound of Example 4, 2-[2-(3-butyl-4-methyl-4-thiazolin-2-ylidene)methyl]-3-heptyl-5-methyl thiazolinium iodide]
[1]; Table 5, oral, 10 µg/kg
  Enzyme Activity GOT (U/L): 386 ± 50 U/L
  Enzyme Activity GPT (U/L): 118 ± 21 U/L

## O=C(O)c1cc(=O)c2c(OCC(O)COc3cccc4oc(C(=O)O)cc(=O)c34)cccc2o1 [DSCG, Disodium cromoglycate, reference compound]
[2]; Table 2 experiment
  Enzyme activity GPT (K.U.): 220 ± 20 K.U.
[2]; Table 3 experiment
  Bilirubin: 0.21 mg/dL
  Enzyme activity GOT (K.U.): 480 ± 50 K.U.
[3]; [4]
  Bilirubin: 0.29 mg/dL
  Complement value (%): 88.4%
  Enzyme activity GOT (K.U.): 400 ± 42 K.U.
[3]; [5]
  Complement value (%): 80.4%
  Enzyme activity GPT (K.U.): 230 ± 33 K.U.

## CCCCCCCCCCCCN1C(C)=CSC1=Cc1scc(C)[n+]1CCCC [Compound of Example 1, 2-[2-(3-dodecyl-4-methyl-4-thiazolin-2-ylidene)methyl]-3-butyl-4-methyl thiazolinium iodide]
[1]; Table 6, oral, 10 µg/kg
  Enzyme Activity GOT (U/L): 627 ± 92 U/L
  Enzyme Activity GPT (U/L): 198 ± 37 U/L
[1]
  inhibiting liver necrocytosis induced by CCl4 (result in words): strong inhibiting activities against liver necrocytosis induced by CC14 when compared with pionin

## CCCCCCC[n+]1c(C=C2SC=C(C)N2CCCC)sc(C)c1C [Compound of Example 5, 2-[2-(3-butyl-4-methyl-4-thiazolin-2-ylidene)methyl]-3-heptyl-4,5-dimethyl thiazolinium iodide]
[1]; Table 5, oral, 10 µg/kg
  Enzyme Activity GOT (U/L): 393 ± 59 U/L
  Enzyme Activity GPT (U/L): 135 ± 29 U/L

## CCCCCCCCCCCCN1C(C)=CSC1=Cc1scc(C)[n+]1CC [Compound of Example 3, 2-[2-(3-dodecyl-4-methyl-4-thiazolin-2-ylidene)methyl]-3-ethyl-4-methyl thiazolinium iodide]
[1]; Table 5, oral, 10 µg/kg
  Enzyme Activity GOT (U/L): 435 ± 67 U/L
  Enzyme Activity GPT (U/L): 107 ± 18 U/L

## CCCCCCCN1C(C)=CSC1=Cc1scc(C)[n+]1CCCCCCC [Pionin, 2-[2-(3-heptyl-4-methyl-4-thiazolin-2-ylidene)methyl]-3-heptyl-4-methyl thiazolinium iodide]
[1]; Table 4, oral, 1 µg/kg
  Enzyme Activity GOT (U/L): 678.3 ± 76.5 U/L
  Enzyme Activity GPT (U/L): 209.0 ± 31.2 U/L
[1]; Table 4, oral, 3 µg/kg
  Enzyme Activity GOT (U/L): 754.5 ± 108.8 U/L
  Enzyme Activity GPT (U/L): 269.7 ± 50.3 U/L
[1]; Table 4, oral, 10 µg/kg
  Enzyme Activity GOT (U/L): 559.2 ± 56.6 U/L
  Enzyme Activity GPT (U/L): 165.8 ± 25.9 U/L
[1]; Table 4, oral, 30 µg/kg
  Enzyme Activity GOT (U/L): 946.8 ± 110.6 U/L
  Enzyme Activity GPT (U/L): 311.4 ± 49.4 U/L
[1]; Table 6, oral, 10 µg/kg
  Enzyme Activity GOT (U/L): 807 ± 172 U/L
  Enzyme Activity GPT (U/L): 251 ± 83 U/L
[1]
  inhibiting liver necrocytosis induced by CCl4 (result in words): has an activity capable of inhibiting liver necrocytosis induced by CCl4
Rat liver cells; Rattus norvegicus, CCl4 + Pionin 0.94 x 10^-6 M, 3 hours after CCl4, mean ± standard deviation, read-out: Survival ratio (%)
  viability at 0.94 µM: 43.6 ± 11.6%
Rat liver cells; Rattus norvegicus, CCl4 + Pionin 1 x 10^-8 M, 3 hours after CCl4, mean ± standard deviation, read-out: Survival ratio (%)
  viability at 0.01 µM: 63.5 ± 19%
Rat liver cells; Rattus norvegicus, CCl4 + Pionin 1 x 10^-9 M, 3 hours after CCl4, mean ± standard deviation, read-out: Survival ratio (%)
  viability at 0.001 µM: 63.4 ± 6.8%
Rat liver cells; Rattus norvegicus, CCl4 + Pionin 1 x 10^-10 M, 3 hours after CCl4, mean ± standard deviation, read-out: Survival ratio (%)
  viability at 0.0001 µM: 63.2 ± 23%
Rat liver cells; Rattus norvegicus, CCl4 + Pionin 1.8 x 10^-7 M, 3 hours after CCl4, mean ± standard deviation, read-out: Survival ratio (%)
  viability at 0.18 µM: 47.1 ± 8.1%
Rat liver cells; in vitro, summary of Table 1
  inhibiting liver necrocytosis (result in words): has an activity capable of inhibiting liver necrocytosis
[3]; [6]
  Bilirubin: 0.51 mg/dL
  Complement value (%): 88.2%
  Enzyme activity GOT (K.U.): 550 ± 160 K.U.
  Enzyme activity GPT (K.U.): 510 ± 62 K.U.
[3]; [7]
  Bilirubin: 0.35 mg/dL
  Complement value (%): 96.6%
  Enzyme activity GOT (K.U.): 420 ± 30 K.U.
  Enzyme activity GPT (K.U.): 300 ± 55 K.U.
[3]; Table 2, intravenous, 1 µg/kg
  Bilirubin: 0.44 mg/dL
  Complement value (%): 91.2%
  Enzyme activity GOT (K.U.): 780 ± 29 K.U.
  Enzyme activity GPT (K.U.): 600 ± 40 K.U.
[3]; Table 2, intravenous, 10 µg/kg
  Bilirubin: 0.77 mg/dL
  Complement value (%): 87.6%
  Enzyme activity GOT (K.U.): 1036 ± 50 K.U.
  Enzyme activity GPT (K.U.): 980 ± 39 K.U.
[3]; Table 3, oral, 0.1 µg/kg
  Bilirubin: 0.77 mg/dL
  Complement value (%): 86.1%
  Enzyme activity GOT (K.U.): 1200 ± 198 K.U.
  Enzyme activity GPT (K.U.): 1003 ± 87 K.U.
[3]; Table 3, oral, 0.5 µg/kg
  Bilirubin: 0.36 mg/dL
  Complement value (%): 91.1%
  Enzyme activity GOT (K.U.): 622 ± 100 K.U.
  Enzyme activity GPT (K.U.): 550 ± 51 K.U.
[3]; Table 3, oral, 1 µg/kg
  Bilirubin: 0.55 mg/dL
  Complement value (%): 92.3%
  Enzyme activity GOT (K.U.): 710 ± 30 K.U.
  Enzyme activity GPT (K.U.): 440 ± 13 K.U.
[3]; Table 3, oral, 10 µg/kg
  Bilirubin: 0.88 mg/dL
  Complement value (%): 88.8%
  Enzyme activity GOT (K.U.): 1350 ± 136 K.U.
  Enzyme activity GPT (K.U.): 1200 ± 188 K.U.
[3]; summary of Tables 2 and 3
  inhibition of liver disorders induced by D-galactosamine (result in words): can inhibit liver disorders induced by D-galactosamine
rats; female rats
  LD50: 503 mg/kg
rats; male rats
  LD50: 460 mg/kg

— patent EP0198605A1, “Prophylaxis of pharmacotherapy of liver disorders” (TEIJIN LIMITED, priority 1985, dated 1986)
